From patent US12649749B2, “Preparation and application of tricyclic pyrimidinone compound and its composition” (NEUSCO BIOTECH LIMITED, priority 2020, dated 2026)

Tests used:
[1] = molecular target: T1, Recombinant human Lp-PLA2 enzyme (Homo sapiens, UniProt Q13093); test: Recombinant human Lp-PLA2 (rhLp-PLA2) assay (PED6 assay); format: biochemical; conditions: PED6 substrate; recombinant human Lp-PLA2 at 4 nM or 110 pM; 30 min pre-incubation; fluorescence ex 480/em 540; read-out: rhLp-PLA2 (pIC50) (converted)
T1 sequence (Q13093 22-441): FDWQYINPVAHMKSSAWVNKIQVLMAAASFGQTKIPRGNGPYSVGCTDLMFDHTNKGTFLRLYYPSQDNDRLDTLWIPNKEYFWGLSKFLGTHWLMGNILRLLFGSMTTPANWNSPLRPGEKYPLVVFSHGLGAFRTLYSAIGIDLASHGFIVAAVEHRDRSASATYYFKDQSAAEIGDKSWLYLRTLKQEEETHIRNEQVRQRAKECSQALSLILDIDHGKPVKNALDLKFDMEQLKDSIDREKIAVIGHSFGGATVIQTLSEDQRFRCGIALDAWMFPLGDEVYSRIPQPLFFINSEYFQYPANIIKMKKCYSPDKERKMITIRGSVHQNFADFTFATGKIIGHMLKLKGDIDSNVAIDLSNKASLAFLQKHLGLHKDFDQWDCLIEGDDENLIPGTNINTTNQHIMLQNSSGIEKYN
Excerpt: (1) Recombinant Human Lp-PLA2 (rhLp-PLA2) Assay (also Known as PED6 Assay)
PED6 is a fluorescently labeled phospholipid that can be purchased directly from Invitogene or Molecular Probes. There is a fluorescence-quenching p-nitrophenyl group on the Sn3 position, and a Bodipy fluorescein (FL) group on the sn2 position. Once it is cleaved by the Lp-PLA2 enzyme, the FL group is released, resulting in enhanced fluorescence.
Assay method: The compound to be tested (as shown in Table 1) was mixed with DMSO solution at a volume ratio of 1:3, diluted to prepare a source plate of a 384-well microplate. Then 0.01 μl of the compound was transferred via an ECHO liquid dispenser from the source plate to a 384-well Greiner 784076 plate, and 5 microliters of a buffer composed of 50 mM HEPES, pH 7.4, 150 mM NaCl, 1 mM CHAPS (the buffer solution contains Recombinant human Lp-PLA2 enzyme at a concentration of 4 nM or 110 pM) was added to each well on the plate. The plate was centrifuged at 500 rpm for 10 seconds. After 30 minutes of pre-incubation, 5 microliters of the above buffer solution was added to a 384-well Greiner784076 plate, and the plate was centrifuged at 500 rpm for 10 seconds.

[2] = molecular target: T2, Lp-PLA2 enzyme in human plasma (Homo sapiens, UniProt Q13093); test: Human plasma Lp-PLA2 assay (Thio-PAF assay); format: biochemical; conditions: mixed human plasma; 2-thio-PAF substrate with CPM; 30 min pre-incubation; fluorescence ex 380/em 485; read-out: Thio-PAF (pIC50) (converted)
T2 construct: from tissue; host or cells: pooled (mixed) human plasma
T2 sequence (Q13093 22-441): T1 sequence (Q13093 22-441)
Procedure: (2) Human Plasma Lp-PLA2 Assay (Also Known as Thio-PAF Assay) The human plasma assay was conducted using the sulphatide analog of PAF (phosphatidylcholine), which is hydrolyzed to produce phospholipids containing free sulfhydryl groups, subjected to Michael addition with CPM to generate fluorescence-enhancing maleimide. Continuous quantitative analysis of thiol could be conducted by detecting the fluorescence intensity. This assay can be used to detect the inhibitory activity of the Lp-PLA2 inhibitor on the Lp-PLA2 enzyme in human plasma. Assay Method: The compound to be tested (as shown in Table 2) was mixed with a DMSO solution in a volume ratio of (1:3), and diluted to prepare a source plate of a 384-well microplate. Then 0.01 μl of the compound was transferred via an ECHO liquid dispenser from the source plate to a 384-well Greiner 784076 low-volume plate, and 8 μl of pre-aliquoted and frozen mixed human plasma was added. The plate was centrifuged at 500 rpm for 10 seconds. After a 30 min pre-incubation, 2 μl of a substrate solution, and containing 2.5 mM 2-thio-PAF (a solution in ethanol), 32 μM CPM (a solution in DMSO) and a buffer of 3.2 mM N-ethylmaleimide (NEM) (a buffer solution consisting of 50 mM HEPES, pH 7.4, 150 mM NaCl, 1 mM CHAPS) was added by a BRAVO liquid handling station to a 384-well Greiner 784076 low-volume plate. After 2 min, the reaction was quenched with 5 μl of 5% trifluoroacetic acid. After the plate was incubated at room temperature for 40 min in a dark place, the fluorescence intensity was read at ex 380/em 485 with an Envision microplate reader, and the XL fitting model in Excel was used to perform the curve analysis and QC analysis to calculate pIC50.

Compound	IC50 [1] [nM]	IC50 [2] [nM]
O=c1nc(OCc2cc(F)c(Oc3ccc(C(F)(F)F)c(Cl)c3)c(F)c2)cc2n1CC[C@@H]1COCCN21 [Compound 12]	0.0501	6.31
O=c1nc(OCc2cccc(F)c2F)cc2n1CC[C@H]1COCCN21 [Compound 14]	31.6	316
O=c1nc(OCc2cc(F)c(Oc3ccc(C(F)(F)F)cc3)c(F)c2)cc2n1CC[C@H]1COCCN21 [Compound 20]	0.1	12.6
Cc1cc(Oc2c(F)cc(COc3cc4n(c(=O)n3)CC[C@@H]3COCCN43)cc2F)ccn1 [Compound 5]	0.0631	3.16
O=c1nc(OCc2cc(F)c(Oc3cccc(C(F)(F)F)c3)c(F)c2)cc2n1CC[C@@H]1COCCN21 [Compound 9]	0.0631	6.31
Cc1ccc(Oc2c(F)cc(COc3cc4n(c(=O)n3)CC[C@@H]3COCCN43)cc2F)cn1 [Compound 7]	0.0631	7.94
O=c1nc(OCc2cccc(F)c2F)cc2n1CC[C@@H]1COCCN21 [Compound 2]	25.1	251
O=c1nc(OCc2cc(F)c(Oc3ccnc(C(F)(F)F)c3)c(F)c2)cc2n1CC[C@H]1COCCN21 [Compound 15]	0.126	12.6
O=c1nc(OCc2cc(F)c(Oc3cccc(C(F)(F)F)c3)c(F)c2)cc2n1CC[C@H]1COCCN21 [Compound 19]	0.0794	7.94
O=c1nc(OCc2cc(F)c(F)c(F)c2)cc2n1CC[C@@H]1COCCN21 [Compound 1]	3.98	63.1
Cc1ncc(Oc2c(F)cc(COc3cc4n(c(=O)n3)CC[C@@H]3COCCN43)cc2F)cn1 [Compound 8]	0.316	15.8
O=c1nc(OCc2cc(F)c(Oc3ccc(C(F)(F)F)nc3)c(F)c2)cc2n1CC[C@H]1COCCN21 [Compound 17]	0.126	12.6
O=c1nc(OCc2cc(F)c(F)cc2F)cc2n1CC[C@@H]1COCCN21 [Compound 3]	31.6	316
O=c1nc(OCc2cc(F)c(Oc3cccc(OC(F)(F)F)c3)c(F)c2)cc2n1CC[C@@H]1COCCN21 [Compound 10]	0.0794	10
Cc1cc(Oc2c(F)cc(COc3cc4n(c(=O)n3)CC[C@H]3COCCN43)cc2F)ccn1 [Compound 16]	0.0794	7.94
Cc1ccc(Oc2c(F)cc(COc3cc4n(c(=O)n3)CC[C@H]3COCCN43)cc2F)cn1 [Compound 18]	0.1	10
O=c1nc(OCc2cc(F)c(Oc3ccc(C(F)(F)F)cc3)c(F)c2)cc2n1CC[C@@H]1COCCN21 [Compound 11]	0.0794	7.94
O=c1nc(OCc2cc(F)c(F)c(F)c2)cc2n1CC[C@H]1COCCN21 [Compound 13]	6.31	79.4
O=c1nc(OCc2cc(F)c(Oc3ccc(C(F)(F)F)nc3)c(F)c2)cc2n1CC[C@@H]1COCCN21 [Compound 6]	0.1	7.94
O=c1nc(OCc2cc(F)c(Oc3ccnc(C(F)(F)F)c3)c(F)c2)cc2n1CC[C@@H]1COCCN21 [Compound 4]	0.0794	6.31
